pKi: −log10 of the molar value.
Experiments:
[1] = target: 5-hydroxytryptamine receptor 1A (Homo sapiens, UniProt P08908); test: Displacement of [3H]-Way100635 from recombinant human 5HT1A receptor stably expressed in CHO cell membranes measured after 90 mins by microbeta scintillation counting method
[2] = target: 5-hydroxytryptamine receptor 7 (Homo sapiens, UniProt P34969); test: Displacement of [3H]-LSD from recombinant human 5HT7A receptor stably expressed in HEK cell membranes measured after 90 mins by microbeta scintillation counting method
Sequence of 5-hydroxytryptamine receptor 7 (P34969 whole entry): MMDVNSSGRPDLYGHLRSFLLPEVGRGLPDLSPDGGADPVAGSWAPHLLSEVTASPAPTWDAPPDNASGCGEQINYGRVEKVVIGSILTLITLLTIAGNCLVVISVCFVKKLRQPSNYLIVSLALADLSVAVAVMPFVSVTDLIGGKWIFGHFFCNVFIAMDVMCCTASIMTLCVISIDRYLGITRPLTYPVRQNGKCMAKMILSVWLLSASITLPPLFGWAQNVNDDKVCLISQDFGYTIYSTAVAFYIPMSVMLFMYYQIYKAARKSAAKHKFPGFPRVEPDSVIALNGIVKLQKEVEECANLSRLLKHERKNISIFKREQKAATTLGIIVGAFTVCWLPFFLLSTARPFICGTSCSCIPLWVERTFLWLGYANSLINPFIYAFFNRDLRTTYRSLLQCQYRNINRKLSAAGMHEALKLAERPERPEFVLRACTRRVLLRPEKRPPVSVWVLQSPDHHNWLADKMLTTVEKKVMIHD

[3] = target: Kappa-type opioid receptor (Homo sapiens, UniProt P41145); test: Displacement of [3H]-U69593 from KOR (unknown origin) measured after 90 mins by microbeta scintillation counting method
Sequence of Kappa-type opioid receptor (P41145 whole entry): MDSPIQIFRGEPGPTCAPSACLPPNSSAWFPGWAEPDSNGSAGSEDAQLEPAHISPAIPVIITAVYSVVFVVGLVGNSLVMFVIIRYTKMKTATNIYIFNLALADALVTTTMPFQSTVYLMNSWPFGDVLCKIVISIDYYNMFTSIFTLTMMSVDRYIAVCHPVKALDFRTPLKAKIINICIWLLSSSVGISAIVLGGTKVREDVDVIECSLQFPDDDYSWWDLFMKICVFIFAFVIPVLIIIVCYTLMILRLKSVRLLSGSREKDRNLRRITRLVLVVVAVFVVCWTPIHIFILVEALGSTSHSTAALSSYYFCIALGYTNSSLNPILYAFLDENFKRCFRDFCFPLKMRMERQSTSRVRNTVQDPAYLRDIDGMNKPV

[4] = target: Muscarinic acetylcholine receptor M4 (Homo sapiens, UniProt P08173); test: Displacement of [3H]-QNB/[3H]-NMS from human muscarinic M4 receptor expressed in stable CHO cell membranes after 90 mins by microbeta scintillation counting method
Mu-type opioid receptor = Mu-type opioid receptor (Homo sapiens, UniProt P35372); test: Displacement of [3H]-DAMGO from recombinant human MOR stably expressed in HEK cell membranes measured after 90 mins by microbeta scintillation counting method
[5] = target: Sodium-dependent noradrenaline transporter (Homo sapiens, UniProt P23975); test: Displacement of [3H]-Nisoxetine from human NET receptor expressed in stable HEK cell membranes after 90 mins by microbeta scintillation counting method
[6] = target: 5HT3 receptor (5-hydroxytryptamine receptor 3A) (Homo sapiens, UniProt P46098); test: Displacement of [3H]GR65630 from recombinant human 5HT3 receptor transiently expressed in HEKT cell membranes at 10 uM measured after 90 mins by microbeta scintillation counting method relative to control; conditions: probe [3H]GR65630
Sequence of 5HT3 receptor (5-hydroxytryptamine receptor 3A) (P46098 whole entry): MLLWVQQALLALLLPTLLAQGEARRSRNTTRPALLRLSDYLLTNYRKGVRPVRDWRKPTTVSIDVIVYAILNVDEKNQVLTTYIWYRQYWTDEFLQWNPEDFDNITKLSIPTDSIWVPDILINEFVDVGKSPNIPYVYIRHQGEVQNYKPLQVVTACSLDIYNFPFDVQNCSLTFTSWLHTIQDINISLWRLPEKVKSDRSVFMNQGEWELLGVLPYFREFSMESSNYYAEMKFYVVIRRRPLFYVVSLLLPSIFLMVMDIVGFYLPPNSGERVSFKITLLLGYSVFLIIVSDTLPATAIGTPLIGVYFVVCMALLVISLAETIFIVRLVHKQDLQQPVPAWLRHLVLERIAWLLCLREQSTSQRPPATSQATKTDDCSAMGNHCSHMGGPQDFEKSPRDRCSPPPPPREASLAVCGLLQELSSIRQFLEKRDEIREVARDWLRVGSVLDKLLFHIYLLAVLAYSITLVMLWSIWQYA

[7] = target: Alpha-2A adrenergic receptor (Homo sapiens, UniProt P08913); test: Displacement of [3H]-rauwolscine from recombinant human alpha2A adrenergic receptor stably expressed in MDCK cell membranes at 10 uM measured after 90 mins by microbeta scintillation counting method relative to control; conditions: probe [3H]-rauwolscine
Sequence of Alpha-2A adrenergic receptor (P08913 whole entry): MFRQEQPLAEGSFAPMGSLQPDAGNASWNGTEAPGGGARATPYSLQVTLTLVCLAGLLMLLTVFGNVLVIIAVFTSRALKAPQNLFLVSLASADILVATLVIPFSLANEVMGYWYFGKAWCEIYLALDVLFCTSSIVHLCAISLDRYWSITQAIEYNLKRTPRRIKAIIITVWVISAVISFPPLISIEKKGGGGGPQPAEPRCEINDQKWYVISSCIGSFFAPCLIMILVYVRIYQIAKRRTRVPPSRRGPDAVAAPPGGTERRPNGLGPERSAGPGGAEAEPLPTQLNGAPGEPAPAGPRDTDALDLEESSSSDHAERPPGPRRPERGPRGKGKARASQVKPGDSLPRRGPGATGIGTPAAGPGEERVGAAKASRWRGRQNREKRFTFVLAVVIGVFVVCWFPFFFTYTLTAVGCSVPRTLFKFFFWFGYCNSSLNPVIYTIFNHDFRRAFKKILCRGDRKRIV

[8] = target: T1, Alpha-2C adrenergic receptor (Homo sapiens, UniProt P18825); test: Displacement of [3H]-rauwolscine from recombinant human alpha2C adrenergic receptor stably expressed in MDCK cell membranes at 10 uM measured after 90 mins by microbeta scintillation counting method relative to control; conditions: probe [3H]-rauwolscine
T1 sequence (P18825 whole entry): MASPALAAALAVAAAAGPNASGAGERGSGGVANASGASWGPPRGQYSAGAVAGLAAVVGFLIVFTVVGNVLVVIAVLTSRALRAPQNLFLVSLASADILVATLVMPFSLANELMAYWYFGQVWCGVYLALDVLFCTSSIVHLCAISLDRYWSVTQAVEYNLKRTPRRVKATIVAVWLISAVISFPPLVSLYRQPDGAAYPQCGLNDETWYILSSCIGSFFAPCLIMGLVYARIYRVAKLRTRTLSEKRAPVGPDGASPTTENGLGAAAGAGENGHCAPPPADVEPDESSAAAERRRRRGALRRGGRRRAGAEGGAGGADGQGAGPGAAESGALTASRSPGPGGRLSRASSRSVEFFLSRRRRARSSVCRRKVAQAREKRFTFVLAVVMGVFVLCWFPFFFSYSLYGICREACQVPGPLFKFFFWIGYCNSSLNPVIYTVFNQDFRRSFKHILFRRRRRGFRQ

[9] = target: Beta-1 adrenergic receptor (Homo sapiens, UniProt P08588); test: Displacement of [125I]-pindolol from recombinant human beta1 adrenergic receptor expressed in CHO Flp-In cell membranes at 10 uM measured after 90 mins by microbeta scintillation counting method relative to control; conditions: probe [125I]-pindolol
[10] = target: beta3 adrenergic receptor (Homo sapiens, UniProt P13945); test: Displacement of [3H]-CGP12177 from recombinant human beta3 adrenergic receptor expressed in HEK Flp-In cell membranes at 10 uM measured after 90 mins by microbeta scintillation counting method relative to control; conditions: probe [3H]-CGP12177
Sequence of beta3 adrenergic receptor (P13945 whole entry): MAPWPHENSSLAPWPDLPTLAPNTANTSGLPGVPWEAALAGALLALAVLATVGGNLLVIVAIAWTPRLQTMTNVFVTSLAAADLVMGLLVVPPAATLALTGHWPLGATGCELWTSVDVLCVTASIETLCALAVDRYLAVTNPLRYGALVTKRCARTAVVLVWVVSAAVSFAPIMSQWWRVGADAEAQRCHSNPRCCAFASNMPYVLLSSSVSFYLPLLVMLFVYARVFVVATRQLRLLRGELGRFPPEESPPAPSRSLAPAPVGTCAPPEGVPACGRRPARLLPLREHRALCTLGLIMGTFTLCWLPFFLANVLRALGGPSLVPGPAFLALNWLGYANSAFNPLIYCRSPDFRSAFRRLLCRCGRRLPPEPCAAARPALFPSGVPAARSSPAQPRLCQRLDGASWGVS

dopamine D2 receptor = dopamine D2 receptor (Homo sapiens, UniProt P14416); test: Displacement of [3H]-N-methylspiperone from recombinant human D2 receptor stably expressed in fibroblast cell membranes at 10 uM measured after 90 mins by microbeta scintillation counting method relative to control; conditions: probe [3H]-N-methylspiperone
Histamine H2 receptor = Histamine H2 receptor (Homo sapiens, UniProt P25021); test: Displacement of [125I]-Iodo-aminopotentidine from human histamine H2 receptor expressed in stable HEK cell membranes at 10 uM after 90 mins by microbeta scintillation counting method relative to control; conditions: probe [125I]-Iodo-aminopotentidine
Sequence of Histamine H2 receptor (P25021 whole entry): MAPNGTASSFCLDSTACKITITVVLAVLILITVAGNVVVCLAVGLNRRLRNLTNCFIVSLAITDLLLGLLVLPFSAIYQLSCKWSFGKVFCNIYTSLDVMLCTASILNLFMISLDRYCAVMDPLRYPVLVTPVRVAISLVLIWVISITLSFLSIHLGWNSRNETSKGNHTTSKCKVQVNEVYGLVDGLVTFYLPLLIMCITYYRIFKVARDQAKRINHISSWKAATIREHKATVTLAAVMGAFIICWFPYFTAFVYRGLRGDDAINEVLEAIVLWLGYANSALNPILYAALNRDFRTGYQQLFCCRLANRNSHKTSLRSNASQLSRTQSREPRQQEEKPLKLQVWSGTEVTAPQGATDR

Histamine H3 receptor = Histamine H3 receptor (Homo sapiens, UniProt Q9Y5N1); test: Displacement of [3H]-alpha-methylhistamine from recombinant human histamine H3 receptor expressed in HEK Flp-In cell membranes at 10 uM measured after 90 mins by microbeta scintillation counting method relative to control; conditions: probe [3H]-alpha-methylhistamine
Histamine H4 receptor = Histamine H4 receptor (Homo sapiens, UniProt Q9H3N8); test: Displacement of [3H]-Histamine from recombinant human histamine H4 receptor expressed in HEKT cell membranes at 10 uM measured after 90 mins by microbeta scintillation counting method relative to control; conditions: probe [3H]-Histamine
Sequence of Histamine H4 receptor (Q9H3N8 whole entry): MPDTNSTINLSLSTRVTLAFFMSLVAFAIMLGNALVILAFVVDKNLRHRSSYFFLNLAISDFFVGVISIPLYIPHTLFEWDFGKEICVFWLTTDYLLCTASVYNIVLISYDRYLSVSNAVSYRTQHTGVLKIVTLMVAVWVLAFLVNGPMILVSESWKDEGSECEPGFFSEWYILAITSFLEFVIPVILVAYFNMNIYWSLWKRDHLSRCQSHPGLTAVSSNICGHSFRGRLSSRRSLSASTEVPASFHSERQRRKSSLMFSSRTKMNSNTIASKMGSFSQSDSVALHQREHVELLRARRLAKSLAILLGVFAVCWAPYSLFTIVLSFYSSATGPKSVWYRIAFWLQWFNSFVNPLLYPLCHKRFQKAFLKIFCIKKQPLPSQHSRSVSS

[11] = target: kappa opioid receptor (KOR) (Homo sapiens, UniProt P41145); test: Displacement of [3H]-U69593 from KOR (unknown origin) at 10 uM measured after 90 mins by microbeta scintillation counting method relative to control; conditions: probe [3H]-U69593
Sequence of kappa opioid receptor (KOR) (P41145 whole entry): as the sequence (P41145 whole entry) above

muscarinic M1 receptor = muscarinic M1 receptor (Homo sapiens, UniProt P11229); test: Displacement of [3H]-QNB/[3H]-NMS from human muscarinic M1 receptor expressed in stable CHO cell membranes at 10 uM after 90 mins by microbeta scintillation counting method relative to control; conditions: probe [3H]-QNB/[3H]-NMS
muscarinic M2 receptor = muscarinic M2 receptor (Homo sapiens, UniProt P08172); test: Displacement of [3H]-QNB/[3H]-NMS from human muscarinic M2 receptor expressed in stable CHO cell membranes at 10 uM after 90 mins by microbeta scintillation counting method relative to control; conditions: probe [3H]-QNB/[3H]-NMS
muscarinic M3 receptor = muscarinic M3 receptor (Homo sapiens, UniProt P20309); test: Displacement of [3H]-QNB/[3H]-NMS from human muscarinic M3 receptor expressed in stable CHO cell membranes at 10 uM after 90 mins by microbeta scintillation counting method relative to control; conditions: probe [3H]-QNB/[3H]-NMS
Sequence of muscarinic M3 receptor (P20309 whole entry): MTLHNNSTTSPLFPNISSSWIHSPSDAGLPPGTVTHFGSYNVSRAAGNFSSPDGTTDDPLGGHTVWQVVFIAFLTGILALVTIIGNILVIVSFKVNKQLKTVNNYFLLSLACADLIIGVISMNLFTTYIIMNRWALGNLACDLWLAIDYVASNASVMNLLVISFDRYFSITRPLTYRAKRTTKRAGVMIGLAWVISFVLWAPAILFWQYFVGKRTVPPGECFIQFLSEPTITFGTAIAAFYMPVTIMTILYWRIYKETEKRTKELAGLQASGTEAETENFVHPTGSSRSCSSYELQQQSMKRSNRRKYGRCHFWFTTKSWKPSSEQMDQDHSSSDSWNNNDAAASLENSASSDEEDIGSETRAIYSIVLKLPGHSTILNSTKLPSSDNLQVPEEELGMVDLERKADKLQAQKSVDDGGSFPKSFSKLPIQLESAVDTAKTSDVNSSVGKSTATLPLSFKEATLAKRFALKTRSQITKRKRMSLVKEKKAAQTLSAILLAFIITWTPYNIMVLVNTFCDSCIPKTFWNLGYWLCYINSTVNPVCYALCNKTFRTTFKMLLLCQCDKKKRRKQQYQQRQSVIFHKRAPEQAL

muscarinic M5 receptor = muscarinic M5 receptor (Homo sapiens, UniProt P08912); test: Displacement of [3H]-QNB/[3H]-NMS from human muscarinic M5 receptor expressed in stable CHO cell membranes at 10 uM after 90 mins by microbeta scintillation counting method relative to control; conditions: probe [3H]-QNB/[3H]-NMS
Sequence of muscarinic M5 receptor (P08912 whole entry): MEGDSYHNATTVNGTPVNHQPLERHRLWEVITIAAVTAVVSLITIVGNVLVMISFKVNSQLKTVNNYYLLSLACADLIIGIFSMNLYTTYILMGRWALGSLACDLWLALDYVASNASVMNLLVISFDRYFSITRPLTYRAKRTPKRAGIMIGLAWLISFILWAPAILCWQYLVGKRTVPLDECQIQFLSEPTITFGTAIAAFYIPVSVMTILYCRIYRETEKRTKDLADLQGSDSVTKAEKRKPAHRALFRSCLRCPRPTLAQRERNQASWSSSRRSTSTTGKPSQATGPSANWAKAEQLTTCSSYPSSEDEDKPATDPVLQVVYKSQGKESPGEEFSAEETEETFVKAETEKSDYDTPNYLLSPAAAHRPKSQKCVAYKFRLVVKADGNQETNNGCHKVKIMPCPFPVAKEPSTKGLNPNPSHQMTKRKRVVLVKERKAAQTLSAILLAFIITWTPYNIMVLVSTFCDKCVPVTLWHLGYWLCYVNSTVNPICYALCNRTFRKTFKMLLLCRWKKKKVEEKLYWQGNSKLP

mu opioid receptor (MOR) = mu opioid receptor (MOR) (Homo sapiens, UniProt P35372); test: Displacement of [3H]-DAMGO from recombinant human MOR stably expressed in HEK cell membranes at 10 uM measured after 90 mins by microbeta scintillation counting method relative to control; conditions: HEK cell membranes stably expressing recombinant human MOR, probe [3H]-DAMGO
sigma1 receptor = sigma1 receptor (Homo sapiens, UniProt Q99720); test: Displacement of [3H]-pentazocine from sigma1 receptor (unknown origin) at 10 uM after 90 mins by microbeta scintillation counting method relative to control; conditions: probe [3H]-pentazocine
Sequence of sigma1 receptor (Q99720 whole entry): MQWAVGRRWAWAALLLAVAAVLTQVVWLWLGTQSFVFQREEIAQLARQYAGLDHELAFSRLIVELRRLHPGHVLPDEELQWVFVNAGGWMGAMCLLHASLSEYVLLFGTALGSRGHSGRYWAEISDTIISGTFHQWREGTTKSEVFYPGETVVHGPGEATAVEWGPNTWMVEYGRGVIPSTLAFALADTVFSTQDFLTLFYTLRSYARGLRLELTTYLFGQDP

dopamine D1 receptor = dopamine D1 receptor (Homo sapiens, UniProt P21728); test: in vitro; conditions: probe [3H]-SCH23390

Sequence of 5-hydroxytryptamine receptor 1A (P08908 whole entry): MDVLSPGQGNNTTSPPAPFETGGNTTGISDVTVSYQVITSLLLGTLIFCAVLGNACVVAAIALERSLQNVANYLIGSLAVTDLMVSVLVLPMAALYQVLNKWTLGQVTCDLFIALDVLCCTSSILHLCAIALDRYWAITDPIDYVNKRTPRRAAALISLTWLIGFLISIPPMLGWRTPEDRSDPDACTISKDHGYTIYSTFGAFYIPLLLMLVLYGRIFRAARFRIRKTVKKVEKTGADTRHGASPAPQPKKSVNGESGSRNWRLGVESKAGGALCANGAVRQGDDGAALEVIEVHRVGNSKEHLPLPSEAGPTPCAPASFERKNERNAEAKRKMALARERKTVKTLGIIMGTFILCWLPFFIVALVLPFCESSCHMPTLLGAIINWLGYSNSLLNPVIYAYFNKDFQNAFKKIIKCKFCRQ

Q: With `CCCN(CC[C@]1(O)C[C@H](NC(=O)c2ccc3ccccc3c2)C1)[C@H]1CCc2nc(N)sc2C1` as the molecule, how does the pKi [1] read?
A: 6.15

Q: What about the pKi [2] of the same molecule?
A: 6.11

Q: And the pKi ([3]; read-out: Ki)?
A: < 5.00

Q: What about the pKi ([4]; read-out: Ki) of the same molecule?
A: 5.64

Q: And the pKi (Mu-type opioid receptor; read-out: Ki)?
A: 6.13

Q: What about the pKi ([5]; read-out: Ki) of the same molecule?
A: 6.36

Q: What about the inhibition at […], 10 µM [6] of the same molecule?
A: < 50%

Q: And the inhibition at […], 10 µM [7]?
A: < 50%

Q: What about the inhibition at […], 10 µM [8] of the same molecule?
A: < 50%

Q: And the inhibition at […], 10 µM [9]?
A: < 50%

Q: And the inhibition at […], 10 µM [10]?
A: < 50%

Q: And the inhibition at […], 10 µM (dopamine D2 receptor)?
A: > 50%

Q: And the inhibition at […], 10 µM (Histamine H2 receptor)?
A: > 50%

Q: What about the inhibition at […], 10 µM (Histamine H3 receptor) of the same molecule?
A: > 50%

Q: And the inhibition at […], 10 µM (Histamine H4 receptor)?
A: < 50%

Q: What about the inhibition at […], 10 µM [11] of the same molecule?
A: > 50%

Q: And the inhibition at […], 10 µM (muscarinic M1 receptor)?
A: < 50%

Q: And the inhibition at […], 10 µM (muscarinic M2 receptor)?
A: < 50%

Q: And the inhibition at […], 10 µM (muscarinic M3 receptor)?
A: < 50%

Q: And the inhibition at […], 10 µM (muscarinic M5 receptor)?
A: > 50%

Q: What about the inhibition at […], 10 µM (mu opioid receptor (MOR)) of the same molecule?
A: > 50%

Q: What about the inhibition at […], 10 µM (sigma1 receptor) of the same molecule?
A: > 50%

Q: What about the inhibition at […], 10 µM (dopamine D1 receptor) of the same molecule?
A: < 50%

Q: How did the pKi [1] turn out when `CCCN[C@H]1CCc2nc(N)sc2C1` [PRAMIPEXOLE] was run?
A: 5.19

Q: And the pKi [2]?
A: 5.93

Q: What about the Ki [3] of the same molecule?
A: Not Active

Q: And the Ki ([4]; cho)?
A: Not Active

Q: And the Ki (Mu-type opioid receptor)?
A: Not Active

Q: What about the Ki [5] of the same molecule?
A: Not Active

Q: And the inhibition at […], 10 µM [6]?
A: > 50%

Q: What about the inhibition at […], 10 µM [7] of the same molecule?
A: > 50%

Q: What about the inhibition at […], 10 µM [8] of the same molecule?
A: > 50%

Q: And the inhibition at […], 10 µM [9]?
A: < 50%

Q: What about the inhibition at […], 10 µM [10] of the same molecule?
A: > 50%

Q: What about the inhibition at […], 10 µM (dopamine D2 receptor) of the same molecule?
A: > 50%

Q: What about the inhibition at […], 10 µM (Histamine H2 receptor) of the same molecule?
A: > 50%

Q: What about the inhibition at […], 10 µM (Histamine H3 receptor) of the same molecule?
A: < 50%

Q: What about the inhibition at […], 10 µM (Histamine H4 receptor) of the same molecule?
A: > 50%

Q: And the inhibition at […], 10 µM [11]?
A: < 50%

Q: And the inhibition at […], 10 µM (muscarinic M1 receptor)?
A: > 50%

Q: And the inhibition at […], 10 µM (muscarinic M2 receptor)?
A: > 50%

Q: What about the inhibition at […], 10 µM (muscarinic M3 receptor) of the same molecule?
A: > 50%

Q: And the inhibition at […], 10 µM (muscarinic M5 receptor)?
A: < 50%

Q: What about the inhibition at […], 10 µM (mu opioid receptor (MOR)) of the same molecule?
A: < 50%

Q: What about the inhibition at […], 10 µM (sigma1 receptor) of the same molecule?
A: > 50%

Q: What about the inhibition at […], 10 µM (dopamine D1 receptor) of the same molecule?
A: > 50%

— ChEMBL document CHEMBL4402608 (J Med Chem, 2020)
